pIC50: −log10 of the molar value.

Results on 29 compounds are retold here after patent US20210317092A1 (BAYER PHARMA AKTIENGESELLSCHAFT, priority 2016, published 2021).

The target of one assay is T1, human Bradykinin B1 receptor (Homo sapiens, UniProt P46663).
T1 construct: host or cells: CHO-K1
T1 sequence (P46663 1-353): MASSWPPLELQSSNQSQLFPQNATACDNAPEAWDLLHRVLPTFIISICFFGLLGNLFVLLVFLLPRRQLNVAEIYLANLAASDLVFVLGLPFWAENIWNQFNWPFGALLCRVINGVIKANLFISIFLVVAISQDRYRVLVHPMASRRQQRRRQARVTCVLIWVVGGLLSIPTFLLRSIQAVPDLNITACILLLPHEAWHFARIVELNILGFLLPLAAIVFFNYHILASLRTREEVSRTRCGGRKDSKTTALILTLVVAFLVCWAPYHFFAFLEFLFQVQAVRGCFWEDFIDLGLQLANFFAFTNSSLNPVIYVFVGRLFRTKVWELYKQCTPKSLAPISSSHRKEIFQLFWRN
The assay can be described thus: Calcium flux Assay (FLIPR) with recombinant CHO-K1 cells expressing human Bradykinin B1 receptor, in presence (hB1 IC50) or absence (hB1 free IC50) of 0.1% BSA. As to conditions: in absence of 0.1% BSA, read-out: hB1 free IC50. It counts as cell-based. A general note: Calcium flux is commonly read through the fluorescence of an indicator in the cells.
The pIC50 is the IC50 on a negative log10 scale, so that one unit is a factor of ten. As to `CC(C)(C)c1cn(-c2ccc(NC(=O)C3(c4ccc(F)c(F)c4)CC3)cc2-c2nnn[nH]2)cn1` [Example 401, N-[4-(4-tert-butyl-1H-imidazol-1-yl)-3-(1H-tetrazol-5-yl)phenyl]-1-(3,4-difluorophenyl)cy-clopropanecar-boxamide], the pIC50 was 7.46.

On to `Cc1ccc(C2(C(=O)Nc3ccc(-n4cc(Cl)cn4)c(-c4nnn[nH]4)c3)CC2)c(F)c1` [Example 393, N-[4-(4-chloro-1H-pyrazol-1-yl)-3-(1H-tetrazol-5-yl)phenyl]-1-(2-fluoro-4-methylphenyl)cy-clopropanecar-boxamide], for which the pIC50 was 6.73.

`O=C(Nc1ccc(-n2ccc(C(F)(F)F)n2)c(-c2nnn[nH]2)c1)C1(c2cccc(Cl)c2)CC1` [Example 354, 1-(3-Chlorophenyl)-N-{3-(1H-tetrazol-5-yl)-4-[3-(trifluoromethyl)-1H-pyrazol-1-yl]phenyl}cyclopro-panecarboxa-mide]: the pIC50 is 5.73.

For the compound `O=C(Nc1ccc(-c2ccnc(C(F)(F)F)c2)c(-c2nnn[nH]2)c1)C1(c2cc(F)ccc2F)CC1` [Example 179], the pIC50 was 6.41.

For “1-[2-fluoro-4- (trifluoromethoxy)- phenyl]-N-{3- (1H-tetrazol-5- yl)-4-[3-(2,2,2- trifluoroethyl)- 1H-pyrazol-1- yl]phenyl}cyclopro- panecarboxa- mide [Example 390]”, the pIC50 is 7.85.

Regarding `CCOc1ccc(-c2ccc(NC(=O)C3(c4cccc(CC)c4)CC3)cc2-c2nnn[nH]2)cn1` [Example 95, N-[4-(6-ethoxypyridin-3-yl)-3-(1H-tetrazol-5-yl)phenyl]-1-(3-ethylphenyl) cyclopropane-carboxamide], the pIC50 is 7.98.

In the case of `N#Cc1ncc(-c2ccc(NC(=O)C3(c4cccc(Cl)c4)CC3)cc2-c2nnn[nH]2)cn1` [Example 334, 1-(3-chlorophenyl)-N-[4-(2-cyanopyrimidin-5-yl)-3-(1H-tetrazol-5-yl)phenyl]cyclopro-panecarboxa-mide], the pIC50 is 7.00.

As for `CCOc1ccc(-c2ccc(NC(=O)C3(CC(C)C)CC3)cc2-c2nnn[nH]2)cn1` [Example 89, N-[4-(6-ethoxypyridin-3-yl)-3-(1H-tetrazol-5-yl)phenyl]-1-isobuty-l cyclopropane-carboxamide], the pIC50 was 6.27.

In the case of `O=C(Nc1ccc(-c2ccnc(C(F)F)c2)c(-c2nnn[nH]2)c1)C1(c2ccc(F)c(F)c2)CC1` [Example 206, N-{4-[2-(difluoromethyl)pyridin-4-yl]-3-(1H-tetrazol-5-yl)phenyl}-1-(3,4-difluorophenyl) cyclopropane-carboxamide], the pIC50 was 6.31.

With `O=C(Nc1ccc(-n2cnc(C(F)(F)F)n2)c(-c2nnn[nH]2)c1)C1(c2ccc(F)c(F)c2)CC1` [Example 358, 1-(3,4-difluorophenyl)-N-{3-(1H-tetrazol-5-yl)-4-[3-(trifluoromethyl)-1H-1,2,4-triazol-1-yl]phenyl}cyclopro-panecarboxa-mide], the pIC50 was 5.53.

Turning to `O=C(Nc1cnc(-c2cnn(C(F)F)c2)c(-c2nnn[nH]2)c1)C1(c2ccc(C(F)(F)F)cc2F)CC1` [Example 296, N-{6-[1-(difluoromethyl)-1H-pyrazol-4-yl]-5-(1H-tetrazol-5-yl)pyridin-3-yl}-1-[2-fluoro-4-(trifluoromethyl)phenyl]cyclopro-panecarboxamide], the pIC50 was 5.76.

Consider `CCc1cnn(-c2ccc(NC(=O)C3(c4ccc(C(F)(F)F)cc4F)CC3)cc2-c2nnn[nH]2)c1` [Example 376, N-[4-(4-Ethyl-1H-pyrazol-1-yl)-3-(1H-tetrazol-5-yl)phenyl]-1-[2-fluoro-4-(trifluoromethyl)phenyl]cyclopro-panecarboxamide], for which the pIC50 is 7.92.

Regarding `O=C(Nc1ccc(-c2ccc(C(F)F)nc2)c(-c2nnn[nH]2)c1)C1(c2ccc(OC(F)(F)F)cc2F)CC1` [Example 276, N-{4-[6-(difluoromethyl)pyridin-3-yl]-3-(1H-tetrazol-5-yl)phenyl}-1-[2-fluoro-4-(trifluoromethoxy)phenyl]cyclo-propanecarboxa-mide], the negative-log IC50 (pIC50) is 8.74.

For `Cc1ccc(C2(C(=O)Nc3ccc(-c4ccc(C(C)(F)F)nc4)c(-c4nnn[nH]4)c3)CC2)c(F)c1` [Example 280, N-{4-[6-(1,1-difluoroethyl)py-ridin-3-yl]-3-(1H-tetrazol-5-yl)phenyl}-1-(2-fluoro-4-methylphenyl)cy-clopropanecar-boxamide], the pIC50 is 7.95.

As for `CCc1ccn(-c2ccc(NC(=O)C3(c4ccc(C(F)(F)F)cc4F)CC3)cc2-c2nnn[nH]2)n1` [Example 372, N-[4-(3-Ethyl-1H-pyrazol-1-yl)-3-(1H-tetrazol-5-yl)phenyl]-1-[2-fluoro-4-(trifluoromethyl)phenyl]cyclopro-panecarboxamide], the pIC50 is 7.51.

As for `Cc1nc(C(F)(F)F)nn1-c1ccc(NC(=O)C2(c3cccc(Cl)c3)CC2)cc1-c1nnn[nH]1` [Example 359, 1-(3-chlorophenyl)-N-{4-[5-methyl-3-(trifluoromethyl)-1H-1,2,4-triazol-1-yl]-3-(1H-tetrazol-5-yl)phenyl}cyclopro-panecarboxa-mide], the pIC50 is 6.17.

Consider `CCOc1ccc(-c2ccc(NC(=O)C3(c4ccccc4Cl)CC3)cc2-c2nnn[nH]2)cn1` [Example 93, 1-(2-chlorophenyl)-N-[4-(6-ethoxypyridin-3-yl)-3-(1H-tetrazol-5-yl)phenyl] cyclopropane-carboxamide], for which the pIC50 was 7.41.

Turning to `CC(C)(C)c1ccn(-c2ccc(NC(=O)C3(c4cccc(Cl)c4)CC3)cc2-c2nnn[nH]2)n1` [Example 382, N-[4-(3-tert-Butyl-1H-pyrazol-1-yl)-3-(1H-tetrazol-5-yl)phenyl]-1-(3-chlorophenyl)cyclo-propanecarbox-amide], the pIC50 is 6.11.

`O=C(Nc1ccc(-n2ccc(C(F)(F)F)n2)c(-c2nnn[nH]2)c1)C1(c2ccc(OC(F)(F)F)cc2F)CC1` [Example 363, 1-[2-Fluoro-4-(trifluoromethoxy)phenyl]-N-{3-(1H-tetrazol-5-yl)-4-[3-(trifluoromethyl)-1H-pyrazol-1-yl]phenyl}cyclopro-panecarboxa-mide]: the pIC50 was 7.43.

Staying with this assay, now noted: in presence of 0.1% BSA, read-out: hB1 IC50.
With `COc1ccc(-c2ccc(NC(=O)C3(C4CCC(C)CC4)CC3)cc2-c2nnn[nH]2)cc1` (mixture of isomers) [Example 114, N-[4′-methoxy-2-(1H-tetrazol-5-yl)biphenyl-4-yl]-1-(4-methylcyclo-hexyl) cyclopropane carboxamide], the pIC50 was 5.87.

For the compound `COc1ccc(-c2ccc(NC(=O)C3(c4cccc(F)c4C)CC3)cc2-c2nnn[nH]2)cc1OC` [Example 257, N-[3′,4′-dimethoxy-2-(1H-tetrazol-5-yl)biphenyl-4-yl]-1-(3-fluoro-2-methylphenyl)cy-clopropanecar-boxamide], the pIC50 was 6.04.

On to `COc1ccc(-c2ccc(NC(=O)C3(c4ccc(C)cc4)CC3(C)C)cc2-c2nnn[nH]2)cc1OC` (stereo not drawn) [Example 5, N-[3′,4′-dimethoxy-2-(1H-tetrazol-5-yl)biphenyl-4-yl]-2,2-dimethyl-1-(4-methylpheny) cyclopropane carboxamide], for which the pIC50 was 5.82.

For `CCOc1ncc(-c2ccc(NC(=O)C3(c4ccc(C(F)(F)F)cc4)CC3)cc2-c2nnn[nH]2)cc1C` [Example 161, N-[4-(6-ethoxy-5-methylpyridin-3-yl)-3-(1H-tetrazol-5-yl)phenyl]-1-[4-(trifluoromethyl)phenyl] cyclopropane-carboxamide], the pIC50 was 7.60.

As for `O=C(Nc1cc(-c2nnn[nH]2)c(-c2ccc(C(F)(F)F)nc2)cc1O)C1(c2ccc(Cl)cc2)CC1` [Example 226, 1-(4-chlorophenyl)-N-{2-hydroxy-5-(1H-tetrazol-5-yl)-4-[6-(trifluoromethyl)pyridin-3-yl]phenyl} cyclopropane-carboxamide], the pIC50 was 6.98.

On to `CCOc1ncc(-c2ccc(NC(=O)C3(c4ccc(F)cc4F)CC3)cc2-c2nnn[nH]2)cc1F` [Example 165, 1-(2,4-difluorophenyl)-N-[4-(6-ethoxy-5-fluoropyridin-3-yl)-3-(1H-tetrazol-5-yl)phenyl] cyclopropane-carboxamide], for which the pIC50 was 7.19.

Take `CCOc1ccc(-c2ccc(NC(=O)C3(c4cccc(CC)c4)CC3)cc2-c2nnn[nH]2)cn1` [Example 95, N-[4-(6-ethoxypyridin-3-yl)-3-(1H-tetrazol-5-yl)phenyl]-1-(3-ethylphenyl) cyclopropane-carboxamide]: the pIC50 was 7.84.

`N#Cc1ncc(-c2ccc(NC(=O)C3(c4cccc(Cl)c4)CC3)cc2-c2nnn[nH]2)cn1` [Example 334, 1-(3-chlorophenyl)-N-[4-(2-cyanopyrimidin-5-yl)-3-(1H-tetrazol-5-yl)phenyl]cyclopro-panecarboxa-mide]: the pIC50 is 6.03.

On to `CCOc1ccc(-c2ccc(NC(=O)C3(CC(C)C)CC3)cc2-c2nnn[nH]2)cn1` [Example 89, N-[4-(6-ethoxypyridin-3-yl)-3-(1H-tetrazol-5-yl)phenyl]-1-isobuty-l cyclopropane-carboxamide], for which the pIC50 was 6.21.

Regarding `COc1ccc(-c2ccc(NC(=O)C3(c4cccc(Cl)c4)CCC3)cc2-c2nnn[nH]2)cc1OC` [Example 62, 1-(3-chlorophenyl)-N-[3′,4′-dimethoxy-2-(1H-tetrazol-5-yl)biphenyl-4-yl]cyclobutane-carboxamide], the pIC50 is 5.61.

For `CCOc1ccc(-c2ccc(NC(=O)C3(c4ccc(Cl)nc4)CC3)cc2-c2nnn[nH]2)cn1` [Example 108, 1-(6-chloropyridin-3-yl)-N-[4-(6-ethoxypyridin-3-yl)-3-(1H-tetrazol-5-yl)phenyl] cyclopropane-carboxamide], the pIC50 was 6.47.

`CCOc1ccc(-c2ccc(NC(=O)C3(c4ccccc4Cl)CC3)cc2-c2nnn[nH]2)cn1` [Example 93, 1-(2-chlorophenyl)-N-[4-(6-ethoxypyridin-3-yl)-3-(1H-tetrazol-5-yl)phenyl] cyclopropane-carboxamide]: the negative-log IC50 (pIC50) is 7.43.

`N#Cc1ccc(-c2ccc(NC(=O)C3(c4cccc(Cl)c4)CC3)cc2-c2nnn[nH]2)cn1` [Example 323, 1-(3-chlorophenyl)-N-[4-(6-cyanopyridin-3-yl)-3-(1H-tetrazol-5-yl)phenyl]cyclopro-panecarboxa-mide]: the pIC50 was 6.45.

For the compound `CCOc1ncc(-c2ccc(NC(=O)C3(c4ccc(F)cc4F)CC3)cc2-c2nnn[nH]2)cc1C` [Example 162, 1-(2,4-difluorophenyl)-N-[4-(6-ethoxy-5-methylpyridin-3-yl)-3-(1H-tetrazol-5-yl)phenyl] cyclopropane-carboxamide], the pIC50 is 7.23.
